Measurements: patent US20210300940A1 (Merck Patent GmbH, priority 2018, published 2021)
Counter-ions that a name gives are not always drawn.

How the values were obtained:
TLR7 = target: T1, TLR7 (Homo sapiens, UniProt Q9NYK1); assay: HEK/293 TLR7 Cell Assay; format: cell-based; settings: TLR7/NFKb HEK cells, R848 agonist 10 uM final concentration, Steady-Glo readout; read-out: TLR7 potency
T1 construct: expressed in transfected cells; host or cells: HEK/293 cells carrying TLR7 and an NF-kB luciferase reporter
T1 sequence (Q9NYK1 27-1049): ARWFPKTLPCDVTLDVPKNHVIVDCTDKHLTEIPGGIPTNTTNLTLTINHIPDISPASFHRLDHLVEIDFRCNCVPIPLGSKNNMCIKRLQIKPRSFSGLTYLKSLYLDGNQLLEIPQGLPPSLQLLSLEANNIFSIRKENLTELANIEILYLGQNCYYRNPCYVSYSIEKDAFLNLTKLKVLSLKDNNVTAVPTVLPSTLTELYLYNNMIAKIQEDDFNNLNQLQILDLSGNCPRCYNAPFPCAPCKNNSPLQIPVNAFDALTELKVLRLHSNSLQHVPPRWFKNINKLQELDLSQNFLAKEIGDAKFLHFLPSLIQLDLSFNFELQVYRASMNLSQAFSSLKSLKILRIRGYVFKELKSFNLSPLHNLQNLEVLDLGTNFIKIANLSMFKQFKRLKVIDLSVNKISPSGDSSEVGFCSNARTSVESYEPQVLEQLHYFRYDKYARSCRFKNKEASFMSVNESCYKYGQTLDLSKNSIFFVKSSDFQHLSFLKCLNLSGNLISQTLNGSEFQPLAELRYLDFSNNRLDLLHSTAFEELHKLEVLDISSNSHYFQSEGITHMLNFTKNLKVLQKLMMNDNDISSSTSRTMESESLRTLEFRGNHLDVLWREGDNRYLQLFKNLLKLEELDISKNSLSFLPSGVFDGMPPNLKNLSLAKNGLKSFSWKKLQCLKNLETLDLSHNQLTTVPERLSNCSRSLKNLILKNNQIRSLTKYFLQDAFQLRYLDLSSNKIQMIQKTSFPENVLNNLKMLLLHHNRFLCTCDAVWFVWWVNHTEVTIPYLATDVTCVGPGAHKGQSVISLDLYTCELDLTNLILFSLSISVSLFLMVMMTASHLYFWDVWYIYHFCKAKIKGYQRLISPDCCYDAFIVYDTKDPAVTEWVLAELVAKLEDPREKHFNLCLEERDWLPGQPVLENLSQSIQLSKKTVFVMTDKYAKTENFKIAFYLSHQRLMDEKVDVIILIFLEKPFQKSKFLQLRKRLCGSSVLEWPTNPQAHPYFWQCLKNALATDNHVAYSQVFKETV
Outline: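 Compounds added to HEK cells expressing TLR7 with an NFκB reporter 30 min ahead of 10 uM R848 challenge; luciferase signal (Steady-Glo) measured after 5 h, cells having been seeded 24 h earlier at 5000 per well.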

TLR8 = target: T2, TLR8 (Homo sapiens, UniProt Q9NR97); assay: HEK/293 TLR8 Cell Assay; format: cell-based; settings: HEK cells, R848 agonist 30 uM final concentration, Steady-Glo readout; read-out: TLR8 potency
T2 construct: expressed in transfected cells; host or cells: HEK/293 reporter cells (NF-kB luciferase)
T2 sequence (Q9NR97 27-1041): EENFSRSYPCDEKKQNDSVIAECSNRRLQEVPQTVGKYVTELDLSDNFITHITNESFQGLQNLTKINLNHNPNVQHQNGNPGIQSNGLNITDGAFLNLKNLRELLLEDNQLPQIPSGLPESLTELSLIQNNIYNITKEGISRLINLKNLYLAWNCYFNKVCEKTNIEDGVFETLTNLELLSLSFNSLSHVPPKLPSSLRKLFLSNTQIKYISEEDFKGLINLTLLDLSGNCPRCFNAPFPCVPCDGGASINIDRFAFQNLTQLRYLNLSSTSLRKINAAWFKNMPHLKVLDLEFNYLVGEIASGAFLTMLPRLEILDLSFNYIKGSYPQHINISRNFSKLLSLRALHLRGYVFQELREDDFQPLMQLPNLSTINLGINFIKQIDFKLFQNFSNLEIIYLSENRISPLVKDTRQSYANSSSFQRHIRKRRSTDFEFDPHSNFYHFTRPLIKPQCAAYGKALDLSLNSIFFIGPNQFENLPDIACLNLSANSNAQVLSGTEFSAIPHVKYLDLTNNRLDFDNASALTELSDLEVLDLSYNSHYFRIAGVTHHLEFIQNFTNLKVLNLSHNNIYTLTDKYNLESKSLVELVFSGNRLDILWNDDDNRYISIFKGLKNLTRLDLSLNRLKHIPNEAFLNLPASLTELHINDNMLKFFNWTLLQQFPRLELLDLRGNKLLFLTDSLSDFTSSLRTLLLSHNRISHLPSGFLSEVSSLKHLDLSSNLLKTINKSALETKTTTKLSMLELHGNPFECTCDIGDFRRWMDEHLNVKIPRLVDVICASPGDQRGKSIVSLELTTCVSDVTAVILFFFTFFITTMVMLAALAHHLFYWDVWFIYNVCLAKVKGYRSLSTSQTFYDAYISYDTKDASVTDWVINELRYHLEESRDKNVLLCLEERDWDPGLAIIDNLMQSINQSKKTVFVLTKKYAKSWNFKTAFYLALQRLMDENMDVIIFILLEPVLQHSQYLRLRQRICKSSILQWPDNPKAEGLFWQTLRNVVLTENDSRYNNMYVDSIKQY

Row | Molecule | IC50 (TLR7) | IC50 (TLR8)
1 | CN(C)CCC(=O)N[C@@H]1C[C@H](C(F)(F)F)CN(c2ccc(C(F)(F)F)c3ncccc23)C1 [Example 64, 3-(dimethylamino)-N-[(3R,5S)-5-(trifluoromethyl)-1-[8-(trifluoromethyl)quinolin-5-yl]piperidin-3-yl]propanamide] | < 75 nM | < 75 nM
2 | C[C@H]1C[C@@H](OCCN2CCCCC2)CN(c2ccc(C(F)(F)F)c3ncccc23)C1 (racemic) [Example 3, 5-[cis-3-methyl-5-[2-(piperidin-1-yl)ethoxy]piperidin-1-yl]-8-(trifluoromethyl)quinolone] | > 150 nM | < 75 nM
3 | C[C@H]1C[C@@H](NCCC(C)(C)O)CN(c2ccc(C(F)(F)F)c3ncccc23)C1 [Example 33, 2-Methyl-4-[(3R,5S)-5-methyl-1-(8-trifluoromethyl-quinolin-5-yl)-piperidin-3-ylamino]-butan-2-ol] | < 75 nM | < 75 nM
4 | C[C@H]1C[C@@H](NC(=O)CC2(O)CCN(C)CC2)CN(c2ccc(C(F)(F)F)c3ncccc23)C1 [Example 84, 2-(4-hydroxy-1-methylpiperidin-4-yl)-N-[(3R,5S)-5-methyl-1-[8-(trifluoromethyl)quinolin-5-yl]piperidin-3-yl]acetamide] | < 75 nM | < 75 nM
5 | C[C@@H]1CN(c2cnc(C#N)c3ncccc23)C[C@H](CNC(=O)[C@]2(F)CCCNC2)O1 (single isomer, unassigned) [Example 339] | > 150 nM | < 75 nM
6 | CC(=O)NCCN[C@@H]1C[C@H](C)CN(c2ccc(C#N)c3nccnc23)C1 [Example 49, N-{2-[(3R,5S)-1-(8-Cyano-quinoxalin-5-yl)-5-methyl-piperidin-3-ylamino]-ethyl}-acetamide] | < 75 nM | < 75 nM
7 | C[C@@H]1CN(c2ccc(C#N)c3nccnc23)C[C@H](C(=O)NC2CCC(=O)NC2=O)O1 (stereo partly drawn) [Example 236, (2R,6R)-4-(8-Cyano-quinoxalin-5-yl)-6-methyl-morpholine-2-carboxylic acid (2,6-dioxo-piperidin-3-yl)-amide] | 75 to 150 nM | 75 to 150 nM
8 | C[C@@H]1CN(c2ccc(C#N)c3nccnc23)C[C@H](C(=O)NC[C@H](O)CO)O1 [Example 234, (2R,6R)-4-(8-Cyano-quinoxalin-5-yl)-6-methyl-morpholine-2-carboxylic acid ((S)-2,3-dihydroxy-propyl)-amide] | 75 to 150 nM | 75 to 150 nM
9 | C[C@H]1C[C@@H](N)CN(c2cnc(C#N)c3ncccc23)C1 [Example 8, 5-((3R,5S)-3-Amino-5-methyl-piperidin-1-yl)-[1,7]naphthyridine-8-carbonitrile hydrochloride] | < 75 nM | < 75 nM
10 | (2S,6S)-4-(8-cyanoquinolin-5-yl)-N-[(4-fluoro-1-methylpiperidin-4-yl)methyl]-6-(trifluoromethyl)morpholine-2-carboxamide [Example 316] | 75 to 150 nM | > 150 nM
11 | N#Cc1ccc(N2C[C@H](NC(=O)[C@H]3CCCN3)C[C@H](C(F)(F)F)C2)c2cccnc12 [Example 126, (2R)—N-[(3R,5S)-1-(8-cyanoquinolin-5-yl)-5-(trifluoromethyl)piperidin-3-yl]pyrrolidine-2-carboxamide] | 75 to 150 nM | > 150 nM
12 | CNS(=O)(=O)CCNC(=O)[C@H]1CN(c2ccc(C#N)c3nccnc23)C[C@@H](C)O1 [Example 255, (2R,6R)-4-(8-cyanoquinoxalin-5-yl)-6-methyl-N-[2-(methylsulfamoyl)ethyl]morpholine-2-carboxamide] | < 75 nM | < 75 nM
13 | C[C@@H]1CN(c2ccc(C#N)c3ncncc23)C[C@H](C(=O)NC[C@H]2CN(C)CCO2)O1 [Example 267, (2R,6R)-4-(8-Cyano-quinazolin-5-yl)-6-methyl-morpholine-2-carboxylic acid ((S)-4-methyl-morpholin-2-ylmethyl)-amide] | < 75 nM | < 75 nM
14 | CCN(C)CCNC(=O)[C@H]1CN(c2cnc(C#N)c3ncccc23)C[C@@H](C)O1 [Example 270, (2R,6R)-4-(8-Cyano-[1,7]naphthyridin-5-yl)-6-methyl-morpholine-2-carboxylic acid [2-(ethyl-methyl-amino)-ethyl]-amide] | < 75 nM | < 75 nM
15 | Cc1ccc(N2C[C@@H](C)C[C@@H](NC(=O)[C@@H](N)CC(N)=O)C2)c2cccnc12 [Example 130, (2S)-2-amino-N-[(3R,5S)-5-methyl-1-(8-methylquinolin-5-yl)piperidin-3-yl]butanediamide] | 75 to 150 nM | < 75 nM
16 | C[C@H]1C[C@@H](NC(=O)C[C@@H]2CCNC[C@@H]2F)CN(c2ccc(C#N)c3ncncc23)C1 [Example 131, N-[(3R,5S)-1-(8-cyanoquinazolin-5-yl)-5-methylpiperidin-3-yl]-2-[(3R,4S)-3-fluoropiperidin-4-yl]acetamide] | < 75 nM | > 150 nM
17 | CC[C@@H](NC(=O)[C@H]1CN(c2ccc(C#N)c3nccnc23)C[C@@H](C)O1)C(N)=O [Example 248, (2R,6R)-4-(8-Cyano-quinoxalin-5-yl)-6-methyl-morpholine-2-carboxylic acid ((R)-1-carbamoyl-propyl)-amide] | 75 to 150 nM | < 75 nM
18 | C[C@H]1C[C@@H](NCC(=O)N2CCOCC2)CN(c2ccc(C(F)(F)F)c3ncccc23)C1 [Example 18, 2-{[(3R,5S)-5-methyl-1-[8-(trifluoromethyl)quinolin-5-yl]piperidin-3-yl]amino}-1-(morpholin-4-yl)ethan-1-one] | < 75 nM | < 75 nM
19 | CN1CC[C@](F)(CNC(=O)[C@@H]2CN(c3ccc(C#N)c4nccnc34)C[C@H](C(F)(F)F)O2)C1 (single isomer, unassigned) [Example 358] | < 75 nM | < 75 nM
20 | N#Cc1ccc(N2C[C@@H](C(=O)NCC3(F)CCNCC3)O[C@@H](C(F)(F)F)C2)c2nccnc12 (single isomer, unassigned) [Example 306] | < 75 nM | < 75 nM
21 | C[C@H]1C[C@@H](NCC2(O)CCOCC2)CN(c2ccc(C(F)(F)F)c3nccnc23)C1 [Example 26, 4-{[(3R,5S)-5-Methyl-1-(8-trifluoromethyl-quinoxalin-5-yl)-piperidin-3-ylamino]-methyl}-tetrahydro-pyran-4-ol] | < 75 nM | < 75 nM
22 | Cc1noc([C@H]2CN(c3ccc(C#N)c4nccnc34)C[C@@H](C)O2)n1 (racemic) [Example 213, 8-[(2R,6R)-2-Methyl-6-(3-methyl-[1,2,4]oxadiazol-5-yl)-morpholin-4-yl]-quinoxaline-5-carbonitrile] | > 150 nM | < 75 nM
